Some results are limits rather than exact numbers.

Broadly, the GI50 is the concentration at which growth is held to half of that of the control. By LC50 is commonly meant the concentration lethal to half of the exposed cells or organisms. As usually defined, the IC50 is the concentration at which inhibition is half-maximal. A higher IC50 goes with weaker potency in that assay.

For one test, the system named is NCIH460 (lung) cells. In words: Anti-cancer screen (MTT), NCIH460. The settings on record: Homo sapiens, NCI-H460, NCIH460, 48 hours, MTT; for GI50: read-out: Cell growth inhibition NCIH460 (Lung) GI50; for LC50: read-out: Cell growth inhibition NCIH460 (Lung) LC50; for IC (TGI): read-out: Cell growth inhibition NCIH460 (Lung) TGI. The test is classed as cell-based. As to the method: (§1) Experimental drugs were screened for anti-cancer activity in three cell lines using five concentrations for each compound. The cell lines —HCT 116 (colon), NCIH460 (lung) and U251 (glioma) were maintained in DMEM containing 10% fetal bovine serum. 96-well microtiter plates are inoculated with cells in 100 μL of cell suspension (5×10^4 cells/mL) for 24 hours at 37° C., 5% CO2, 95% air and 100% relative humidity. A separate plate with these cell lines is also inoculated to determine cell viability before the addition of the compounds (T0).
(§2) Following 24-hours incubation, test compounds were added to the 96 well plates. Each plate contains one of the above cell lines and the following samples in triplicate: five different dilutions (0.01, 0.1, 1, 10 and 100 μM) of four test compounds, appropriate dilutions of a cytotoxic standard and growth medium (untreated) wells. Test compounds were dissolved in DMSO to prepare 20 mM stock solutions on the day of drug addition and serial dilutions were carried out in complete growth medium at 2× strength such that 100 μL added to wells gave final concentrations (0.01, 0.1, 1, 10 and 100 μM) in the well. SAHA was used as standard drug in these experiments.
(§3) For T0 measurement, 24 hours after seeding the cells, 20 μL of 3-(4,5-dimethyl-2-thiazolyl)-2,5-diphenyl-2H-tetrazolium (MTT) solution per well was added to the ‘T0’ plate and incubated for 3 hours at 37° C. in a CO2 incubator. The plate containing cells and test compounds was treated similarly after 48 hours of incubation. After 3 hours of MTT addition, well contents were aspirated carefully followed by addition of 150 μL DMSO per well. Plates were agitated to ensure dissolution of the formazan crystals in DMSO and absorbance was read at 570 nm (A570).
(§4) (Mosmann T. Rapid colorimetric assay for cellular growth and survival: application to proliferation and cytotoxicity assays. J Immunol Methods 1983; 65(1-2): 55-63; Anne Monks et al. Feasibility of high-flux anticancer drug screen using a diverse panel of cultured human tumor cell lines”. JNCI, Vol. 83, No. 11, 1991).

Test [1] concerns HDAC (Mouse Liver Extract). The test can be described thus: HDAC inhibition assay using Boc-Lys(Ac)-AMC substrate. The settings on record: mouse liver enzyme. Format: biochemical. As to the method: Inhibition of HDAC has been implicated to modulate transcription and to induce apoptosis or differentiation in cancer cells. The fluorometric assay provides a fast and fluorescence based method that eliminates radioactivity, extractions or chromatography, as used in traditional assays. The assay is based on two steps. First, the HDAC fluorometric substrate, which comprises an acetylated lysine side chain, is incubated with a sample containing HDAC activity (Mouse Liver Extract). Deacetylation of the substrate sensitizes the substrate, in the second step; treatment with the Trypsin stop solution produces a fluorophore that can be easily analyzed using fluorescence plate reader. Assay was done in 96-well black microplate and total volume of the assay was […]. […] The plate was pre-incubated at 37° C. for 5 minutes. […] The plate was incubated at 37° C. for 30 min. The reaction was stopped by adding 100 μL, of Trypsin stop solution and incubating at 37° C. for 15-30 min. Measuring the fluorescence at excitation wavelength of 360 nm and emission wavelength of 460 nm monitored the release of AMC. Buffer alone and substrate alone served as blank. […] (Dennis Wegener et al, Anal. Biochem, 321, 2003, 202-208).

In a further test the test system is U251 (glioma) cells. The test can be described thus: Anti-cancer screen (MTT), U251. The test is classed as cell-based. The settings on record: Homo sapiens, U-251, U251, 48 hours, MTT; for GI50: read-out: Cell growth inhibition U251 (Glioma) GI50; for LC50 (concentration giving 50% net cell kill relative to the time-zero cell count): read-out: Cell growth inhibition U251 (Glioma) LC50; for IC (TGI): read-out: Cell growth inhibition U251 (Glioma) TGI. As to the method:
as §1, §2, §3, §4

In another test the test system is HCT 116 (colon) cells. In words: Anti-cancer screen (MTT), HCT 116. Format: cell-based. The settings on record: Homo sapiens, HCT-116, HCT116, 48 hours, MTT; for GI50: read-out: Cell growth inhibition HCT116 (Colon) GI50; for CC50: read-out: Cell growth inhibition HCT116 (Colon) LC50; for IC (TGI): read-out: Cell growth inhibition HCT116 (Colon) TGI. On the procedure: as §1, §2, §3, §4

Test [2] relates to NCIH460, HCT116 and U251 cells. The test can be described thus: Anti-cancer screen, mean GI50 over cell lines. Format: cell-based. The following applies: mean over cell lines; read-out: Cell growth inhibition Mean GI50. On the procedure: as §1, §2, §3, §4

Turning to `CSc1ccc(/C=C(/C(=O)NCc2ccc(C(=O)NO)cc2)c2ccsc2)cc1` [Compound 59, 4-((2-(Thiophen-3-yl)-3-(4-methylthiophenyl)acrylamido)methyl)-N-hydroxybenzamide], in the test on NCIH460 (lung) cells, the GI50 was found to be 2.3 µM, the LC50 turned out to be 30 µM and the IC (TGI) was 7 µM. Moreover, in test [1], the “HDAC inhibition % (1 μM)” value is 76.6%, the “HDAC inhibition % (10 μM)” value was 96.3% and the half-maximal inhibitory concentration (IC50) came to 0.03 µM. For the same compound, in the test with U251 (glioma) cells, the GI50 was determined as 1.5 µM, the LC50 (concentration giving 50% net cell kill relative to the time-zero cell count) is 65 µM and the IC (TGI) worked out at 5.5 µM. Moreover, in the test on HCT 116 (colon) cells, the GI50 came to 3 µM, the CC50 worked out at 60 µM and the IC (TGI) stood at 15 µM. Further, in test [2], the GI50 turned out to be 2.3 µM.
As to `O=C(CCCCCCNC(=O)/C(=C\c1ccccc1)c1ccccc1)NO` [Compound 85, (2Z)-7-(2,3-Diphenylacrylamido)-N-hydroxy heptanamide], in the test on NCIH460 (lung) cells, the 50% growth inhibitory concentration (GI50) was determined as 3.3 µM, the LC50 was 75 µM and the IC (TGI) worked out at 25 µM. In test [1], the “HDAC inhibition % (1 μM)” value worked out at 79.3%, the “HDAC inhibition % (10 μM)” value stood at 95.8% and the IC50 is 0.38 µM. Also, in the test on U251 (glioma) cells, the GI50 turned out to be 4.8 µM, the LC50 (concentration giving 50% net cell kill relative to the time-zero cell count) was found to be 80 µM and the IC (TGI) was 27 µM. Besides, in the test with HCT 116 (colon) cells, the GI50 came out at 3.1 µM, the CC50 was over 100 µM and the IC (TGI) came to 23 µM. The GI50 in test [2] came to 3.7 µM.
For the compound `COc1ccc(/C=C(/C(=O)NCc2ccc(C(=O)Nc3ccccc3N)cc2)c2ccc(F)cc2)cc1` [Compound 11, N-(2-Aminophenyl)-4-((3-(4-methoxyphenyl)-2-(4-fluorophenyl)acrylamido)methyl)benzamide], in the test on NCIH460 (lung) cells, the GI50 was determined as 8 µM, the LC50 was found to be 83 µM and the IC (TGI) worked out at 41.2 µM. In test [1], the “HDAC inhibition % (1 μM)” value is recorded as 9.7% and the “HDAC inhibition % (10 μM)” value turned out to be 24.6%. Also, in the test with U251 (glioma) cells, the GI50 came to 26.1 µM, the LC50 (concentration giving 50% net cell kill relative to the time-zero cell count) is 86 µM and the IC (TGI) turned out to be 53 µM. Also, in the test with HCT 116 (colon) cells, the GI50 came to 5 µM, the CC50 turned out to be 68.5 µM and the IC (TGI) was determined as 12.5 µM. The GI50 in test [2] is 13 µM.
As for `COC(=O)c1ccc(/C=C(/C(=O)NCc2ccc(C(=O)Nc3ccccc3N)cc2)c2ccc(F)c(F)c2)cc1` [Compound 38, N-(2-Aminophenyl)-4-((3-(4-carbmethoxyphenyl)-2-(3,4-difluorophenyl)acrylamido)methyl)benzamide], in the test on NCIH460 (lung) cells, the GI50 was found to be 50 µM, the LC50 was over 100 µM and the IC (TGI) is over 100 µM. Also, in test [1], the “HDAC inhibition % (1 μM)” value amounted to 20.6% and the “HDAC inhibition % (10 μM)” value amounted to 34.9%. Further, in the test on U251 (glioma) cells, the GI50 worked out at 15 µM, the LC50 (concentration giving 50% net cell kill relative to the time-zero cell count) is over 100 µM and the IC (TGI) worked out at 70 µM. In addition, in the test on HCT 116 (colon) cells, the GI50 amounted to 6.5 µM, the CC50 was over 100 µM and the IC (TGI) was 80 µM. In addition, the GI50 in test [2] amounted to 23.8 µM.
As to `COC(=O)c1ccc(/C=C(/C(=O)NCc2ccc(C(=O)Nc3ccccc3N)cc2)c2ccc(OC)cc2)cc1` [Compound 35, N-(2-Aminophenyl)-4-((3-(4-carbmethoxyphenyl)-2-(4-methoxyphenyl)acrylamido)methyl)benzamide], in the test on NCIH460 (lung) cells, the GI50 was over 100 µM, the LC50 was over 100 µM and the IC (TGI) was over 100 µM. In test [1], the “HDAC inhibition % (1 μM)” value is listed as 24.8% and the “HDAC inhibition % (10 μM)” value is on record as 41.1%. Besides, in the test with U251 (glioma) cells, the GI50 is over 100 µM, the LC50 (concentration giving 50% net cell kill relative to the time-zero cell count) is over 100 µM and the IC (TGI) is over 100 µM. Further, in the test on HCT 116 (colon) cells, the 50% growth inhibitory concentration (GI50) worked out at 2 µM, the CC50 was over 100 µM and the IC (TGI) is over 100 µM. The GI50 in test [2] turned out to be 2 µM.
With `O=C(CCCCCNC(=O)NC(=O)/C(=C/c1ccccc1)c1ccccc1)NO` [Compound 101], in the test on NCIH460 (lung) cells, the GI50 was 10 µM, the LC50 is 82 µM and the IC (TGI) was 45 µM. In addition, in test [1], the “HDAC inhibition % (1 μM)” value is reported as 89.5%, the “HDAC inhibition % (10 μM)” value was determined as 97.1% and the IC50 turned out to be 0.07 µM. Also, in the test on U251 (glioma) cells, the GI50 is 7 µM, the LC50 (concentration giving 50% net cell kill relative to the time-zero cell count) stood at 76 µM and the IC (TGI) was determined as 35 µM. In the test on HCT 116 (colon) cells, the GI50 stood at 2.9 µM, the CC50 worked out at 13.2 µM and the IC (TGI) is 7.6 µM. Moreover, the GI50 in test [2] was found to be 6.6 µM.
On to `COc1ccc(/C(=C\c2ccc(OC)c(OC)c2)C(=O)NCc2ccc(C(=O)Nc3ccccc3N)cc2)cc1` [Compound 27, N-(2-Aminophenyl)-4-((3-(3,4-dimethoxyphenyl)-2-(4-methoxyphenyl)acrylamido)methyl)benzamide], for which, in the test on NCIH460 (lung) cells, the GI50 stood at 2.1 µM and the IC (TGI) is over 100 µM. Moreover, in test [1], the “HDAC inhibition % (1 μM)” value came out at 37.1% and the “HDAC inhibition % (10 μM)” value was found to be 47.2%. In the test with HCT 116 (colon) cells, the GI50 was 0.4 µM, the CC50 was over 100 µM and the IC (TGI) was over 100 µM. Besides, the GI50 in test [2] was determined as 1.2 µM.
As for `CSc1ccc(/C=C(/C(=O)NCc2ccc(/C=C/C(=O)NO)cc2)c2ccc(F)cc2)cc1` [Compound 76, (1E)-N-(4-(3-(Hydroxyamino)-3-oxoprop-1-enyl)benzyl)-2-(4-fluorophenyl)-3-(4-methylthiophenyl)acrylamide], in the test on NCIH460 (lung) cells, the GI50 turned out to be 4.2 µM, the LC50 is over 100 µM and the IC (TGI) stood at 42.5 µM. In test [1], the “HDAC inhibition % (1 μM)” value was found to be 42.6%, the “HDAC inhibition % (10 μM)” value was 89.8% and the IC50 came out at 0.06 µM. In the test on HCT 116 (colon) cells, the GI50 came out at 5 µM, the CC50 was over 100 µM and the IC (TGI) stood at 60 µM. Also, the GI50 in test [2] came to 4.6 µM.
Turning to `Nc1ccccc1NC(=O)c1ccc(CNC(=O)/C(=C/C2CC2)c2ccc(F)cc2)cc1` [Compound 14, N-(2-Aminophenyl)-4-((3-(cyclopropyl)-2-(4-fluorophenyl)acrylamido)methyl)benzamide], in the test on NCIH460 (lung) cells, the GI50 was 8 µM, the LC50 turned out to be 82 µM and the IC (TGI) was 49 µM. In test [1], the “HDAC inhibition % (1 μM)” value is given as 22.8% and the “HDAC inhibition % (10 μM)” value was determined as 31.6%. Further, in the test on HCT 116 (colon) cells, the concentration for 50% growth inhibition (GI50) amounted to 5.6 µM, the CC50 was determined as 81 µM and the IC (TGI) was 24 µM. For the same compound, the GI50 in test [2] was determined as 6.8 µM.

The values are drawn from patent publication US8476255B2, “Histone deacetylase inhibitors” (Orchid Chemicals & Pharmaceuticals Limited, priority 2007, dated 2013).
